Test results from article PMC2854724, “In Vitro Screening of Environmental Chemicals for Targeted Testing Prioritization: The ToxCast Project” (Environmental Health Perspectives, 2009).

Legend:
PPARα = target: T1, PPARα (Homo sapiens, UniProt Q07869); experiment: PPARα assays
T1 sequence (Q07869 1-468): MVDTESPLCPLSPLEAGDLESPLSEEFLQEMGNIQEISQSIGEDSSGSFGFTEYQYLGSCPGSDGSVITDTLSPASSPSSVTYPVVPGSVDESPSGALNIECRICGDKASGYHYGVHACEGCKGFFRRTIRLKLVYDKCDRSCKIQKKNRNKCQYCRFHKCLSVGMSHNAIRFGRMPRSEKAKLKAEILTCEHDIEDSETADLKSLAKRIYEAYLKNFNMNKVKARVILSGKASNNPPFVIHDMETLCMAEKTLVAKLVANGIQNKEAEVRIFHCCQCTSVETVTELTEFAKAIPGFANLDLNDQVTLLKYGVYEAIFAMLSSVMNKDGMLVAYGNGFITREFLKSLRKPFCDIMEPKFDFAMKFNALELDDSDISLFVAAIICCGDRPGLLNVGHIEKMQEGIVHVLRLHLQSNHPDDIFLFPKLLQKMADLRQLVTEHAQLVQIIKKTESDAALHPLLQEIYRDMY
Source text: (§1) There are 467 cell-free or cell-based assays.

PPARγ = target: T2, PPARγ (Homo sapiens, UniProt P37231); experiment: PPARγ assays
T2 sequence (P37231 1-505): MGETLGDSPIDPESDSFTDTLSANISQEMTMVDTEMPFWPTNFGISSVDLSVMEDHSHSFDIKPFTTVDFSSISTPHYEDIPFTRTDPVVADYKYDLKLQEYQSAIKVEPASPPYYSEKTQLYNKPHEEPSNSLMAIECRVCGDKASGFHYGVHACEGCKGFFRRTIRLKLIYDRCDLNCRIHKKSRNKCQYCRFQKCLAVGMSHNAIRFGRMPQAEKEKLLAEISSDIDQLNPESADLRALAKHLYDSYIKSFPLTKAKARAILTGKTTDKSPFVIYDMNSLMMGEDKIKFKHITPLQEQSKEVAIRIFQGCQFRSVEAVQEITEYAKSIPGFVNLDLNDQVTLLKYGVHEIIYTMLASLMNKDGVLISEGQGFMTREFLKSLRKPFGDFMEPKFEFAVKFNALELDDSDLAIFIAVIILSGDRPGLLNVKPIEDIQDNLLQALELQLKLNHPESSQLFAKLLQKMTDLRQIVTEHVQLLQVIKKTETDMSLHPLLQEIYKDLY
Source text: We screened the chemical library using nine separate assay technologies, with assays run in concentration–response format and in some cases with multiple time points. Assays encompass both direct, primary interactions between chemicals and molecular targets and downstream cellular events such as gene expression. […] There are 467 cell-free or cell-based assays. Assay sets include biochemical HTS and cell-based HTS assays measuring direct molecular interactions with specific protein targets; high-content cell-imaging assays measuring complex cellular phenotypes; a multiplexed gene expression assay for xenobiotic metabolizing enzymes and transporters in human primary hepatocytes; multiplexed transcription factor reporter assays; multiplexed biological activity profiling assays measuring biomarkers in a variety of human primary cell cocultures; assays measuring effects of phase I and II xenobiotic metabolizing enzyme (XMEs) on cytotoxicity; an HTS genotoxicity assay; and a real-time cellular impedance assay that measures the kinetics of cell growth and changes in morphology. For all cell-based assays, time points were selected on the basis of studies conducted during the assay development and were considered optimal for the end point being evaluated.
A total of 624 in vitro assay end points (including multiple time points) were measured for each chemical, generating > 200,000 concentration responses. […] In all cases we report a characteristic micromolar concentration for each chemical–assay combination.

[1] = system: HepG2 (hepatocellular carcinoma cell line G2); experiment: HepG2 high-content cell-imaging assays (mitochondrial poison); assay type: cell-based, human
Source text: as §1

MMP1 = experiment: Cell-based assay, perturbation of MMP1 levels
Source text: as §1

MMP9 = experiment: Cell-based assay, perturbation of MMP9 levels
Source text: as §1

[2] = target: matrix metalloproteinase (MMP)3 (Homo sapiens, UniProt P08254); experiment: Cell-free HTS assay, direct interaction with MMP3; assay type: biochemical
Source text: as §1

MMP13 = MMP13 (Homo sapiens, UniProt P45452); experiment: Cell-free HTS assay, direct interaction with MMP13; assay type: biochemical
Source text: as §1

Chain of matrix metalloproteinase (MMP)3 (P08254 100-477): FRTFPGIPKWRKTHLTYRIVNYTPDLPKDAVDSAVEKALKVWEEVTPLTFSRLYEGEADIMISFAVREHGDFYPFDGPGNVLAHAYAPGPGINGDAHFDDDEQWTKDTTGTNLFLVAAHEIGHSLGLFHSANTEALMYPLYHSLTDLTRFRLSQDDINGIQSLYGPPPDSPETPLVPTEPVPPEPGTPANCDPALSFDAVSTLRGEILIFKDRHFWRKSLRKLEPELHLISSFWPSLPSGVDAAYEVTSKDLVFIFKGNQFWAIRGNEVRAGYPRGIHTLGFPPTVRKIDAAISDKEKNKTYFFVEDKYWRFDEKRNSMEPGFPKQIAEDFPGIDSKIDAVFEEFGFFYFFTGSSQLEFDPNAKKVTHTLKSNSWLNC

| Compound | Activity in PPARα assays (PPARα) | Activity in PPARγ assays (PPARγ) | Mitochondrial poison activity in HepG2 high-content cell imaging [1] | also measured |
| --- | --- | --- | --- | --- |
| CCCCC(CC)COC(=O)c1ccccc1C(=O)OCC(CC)CCCC (centres unmarked) [diethylhexyl phthalate] | active | positive | – | – |
| CO/N=C(/C1=NOCCO1)c1ccccc1Oc1ncnc(Oc2ccccc2Cl)c1F [fluoxastrobin] | – | – | active mitochondrial poisons | – |
| CO/C=C(/C(=O)OC)c1ccccc1Oc1cc(Oc2ccccc2C#N)ncn1 [Azoxystrobin] | – | – | active mitochondrial poisons | – |
| COC(=O)N(OC)c1ccccc1COc1ccn(-c2ccc(Cl)cc2)n1 [pyraclostrobin] | – | – | active mitochondrial poisons | – |
| O=C(O)C(F)(F)C(F)(F)C(F)(F)C(F)(F)C(F)(F)C(F)(F)C(F)(F)F [PFOA, perfluorooctanoic acid] | active | – | – | – |
| O=S(=O)(O)C(F)(F)C(F)(F)C(F)(F)C(F)(F)C(F)(F)C(F)(F)C(F)(F)C(F)(F)F [PFOS, perfluorooctane sulfonic acid] | all but PFOS were also active | positive | – | AC50 (MMP1): 13.3 µM; AC50 (MMP9): 4.4 µM; AC50 [2]: 14.6 µM; AC50 (MMP13): 32.4 µM |
| CCOC(=O)C(C)OC(=O)c1cc(Oc2ccc(C(F)(F)F)cc2Cl)ccc1[N+](=O)[O-] (centres unmarked) [lactofen] | active | positive | – | – |
